Two compounds from patent publication US4438142A, “Pharmaceutical combination” (Burroughs Wellcome Co., priority 1982, dated 1984) can be followed below.

In the assay the test system is rat. Nature of the assay: Analgesic Activity: Rat Hot Plate Assay. Particulars: for ED50: po, 1 h, p.o. in rat, single substance, 60 min prior to testing, plate 45±1.0° C., ± standard error. It is filed as in vivo. The text has this:
The rat hot plate assay incorporated two modifications of the mouse hot plate assay originally described by Eddy et al., J. Pharmacol. Exp. Ther. 98, 121-137 (1950). The first modification was enlargement of the diameter of the cylindrical (water filled) copper plate to 25.0 cm to accommodate rats instead of mice. The second modification was the use of a temperature controller to regulate a 250 watt infrared heat lamp which was activated via a thermistor probe attached to the under surface of the copper plate, the temperature of which was thus maintained at 45±1.0° C. (N=28 measurements of the plate temperature under experimental conditions). The time required for a rat placed on the hot plate to respond by lifting, shaking or licking either of its hind or forelimbs was recorded in tenths of a second. Only animals responding in pretest within 6-13 seconds were used in the studies. The combination, comprising an intimate mixture of codeine phosphate with compound I, was suspended in 0.5% sodium carboxymethylcellulose and administered orally, by gavage, in a volume of 1.00 ml/100 g.b. wt. 60 min prior to testing. […] The reaction time of 18.3 seconds represented the sum of the mean pretest times of 40 untreated rats plus the time of 3 standard deviations of the mean. ED50 's and their standard errors were estimated from a graph of the dose-response curves using the method of Miller and Tainter (Proc. Soc. Exp. Biol. Med. 57, 261-262 (1944). Following this procedure the analgesic activities of codeine, compound I and the combination (codeine+compound I) were compared (Table I).

By ED50 is commonly meant the dose at which the effect has come halfway, by size or by number of responders. With `O=C1CCCN1c1ccc2c(c1)OCO2` [Compound I, 1-(1,3-benzodioxol)-5-yl-2-pyrrolidinone], the ED50 was determined as 86 ± 16.5 mg/kg. For the same compound, the “potentiation of the analgesic activity of codeine” value (upon oral administration, compound I with codeine, species not stated) is reported as “four to seven”.
With `COc1ccc2c3c1O[C@H]1[C@@H](O)C=C[C@H]4[C@@H](C2)N(C)CC[C@@]341` [Codeine Phosphate, reference compound], the ED50 was 57 ± 35.3 mg/kg.
